The values that follow come from patent US12687540B2, “Amyloid-binding compounds and methods of use thereof” (Vanderbilt University, priority 2019, dated 2026).

In data set [1] the target is T1, endogenous amyloid-β (Abeta) plaques in the 5XFAD brain lysate (Homo sapiens, UniProt P05067).
T1 construct: coexpressed five familial AD (FAD) and additively increase Abeta-42 production; from tissue; host or cells: midbrain lysate (supernatant) of 8-month-old 5XFAD transgenic mice
In words: HATCO assay (high-throughput amyloid Thioflavin competitive binding optical assay), thioflavin-T fluorescence readout. Also noted: species or system 5XFAD mice. The settings on record: for IC50: competition with thioflavin-T for Abeta in 5XFAD brain lysate, 384-well, 4-parameter fit. The text has this: However, when bound to Abeta plaque, its FL increases dramatically and results in a strong FL signal with a characteristically shifted λmax to approximately 485 nm. In view thereof, as opposed to existing methods that detect binding of the dye through increased fluorescence, the present methods identify amyloid-binding compounds through a lack of binding between the dye and the amyloid, as evidenced by attenuated fluorescence. […] Accordingly, in some embodiments, the method of screening includes combining the target compound(s) with a dye (e.g., Thioflavin-T) and endogenous amyloid (e.g., endogenous amyloid-β (Abeta) plaques in the 5XFAD brain lysate), then measuring the fluorescence of the combination. In some embodiments, the fluorescence of the combination is then compared to negative and/or positive control.
HATCO competitive binding study. […] To facilitate the generation of concentration-response curves, fluorescence at each data point was averaged on a compound-by-compound basis and plotted as a function of concentration. […] From this curve, IC50 values for each compound were calculated by fitting the data to a 4-parameter logistical model in the GraphPad software package.
Brain lysate preparation—Excised midbrains of 5XFAD (8-month-old) or wt mice (age-matched) were homogenized for 5 min in 200 μL of buffer comprised of 21.4 g sucrose, 5 mL of 1 M tris base, and 0.5 mL of 0.5 M EDTA/250 mL DPBS using the T-25 basic Ultra-Turrax homogenizer. Additional 100 μL aliquots of this buffer were then added to the homogenized sample and re-homogenized for 2 min until a total added volume of 800 μL was attained. The sample was diluted to 4 mL total volume using another buffer comprised of 5% BSA, and 0.03% Tween 20 in DPBS solution. Roche Complete protease inhibitor tablets were added to both buffers immediately prior to use (1 tablet/10 mL buffer). The sample was centrifuged at 16,000 g for 30 min at 4° C. Aliquots of the supernatant were stored at −80° C. until use.
HATCO HTS assay—To translate the assay initially performed on a cuvette to a 384-well format, the general protocol includes the following steps: A fresh stock solution of thioflavin-T was prepared in distilled and deionized water after passing through a micro filter. The concentration of […] was measured according to Beer's law with an extinction coefficient of 26,620 M^−1cm^−1 at 416 nm. The stock solution was stored in darkness using aluminum foil and kept at 4° C. throughout the assay. Unless stated, each assaying well contained 10 μM of thioflavin-T, 5 mg/mL of freshly isolated and homogenized brain lysate (5 μL) obtained from 5XFAD mice and with 30 μM of screening compounds. […] For the negative control, the wells contained the same components minus positive control. The protein concentration of brain lysate throughout the study was normalized. After equilibration for 10 min at room temperature, the FL signal of the sample was measured using a Biotek Synergy NEO plate reader at an emission lambda max of 485 nm using an excitation of 465 nm and the signals of the different conditions were analyzed. The final volume per well was 50 μL. All assays were performed using a single dose of screening compounds in triplicate.
Once the preliminary hit compounds were identified, a cross-screening protocol was employed to validate the hits with duplicated concentrations for each hit.

For data set [2] the following is noted: mouse, in vivo. The method, then: In the HPLC experiment, WT and 5XFAD mice (n=3, each) were injected with promethazine via the tail veins, and subsequently perfused 10 min or 4 h post-injection. Freshly isolated brains were homogenized to facilitate extraction and quantification via HPLC using the procedure we reported earlier.
The test system of data set [3] is Abeta plaques. As to the kind of experiment: Autoradiography of human brain tissues from Alzheimer's disease patients with [11C]promethazine PET probe. Format: binding. The settings on record: human AD brain tissue sections soaked in probe in PBS; compared with a large excess of cold promethazine. The text has this:
(A) Tissues ([…]) on glass slides were soaked in [^11C]promethazine PET probe diluted in PBS solution. (B) Tissues were soaked in the same solution as (A), albeit with the presence of a large excess of “cold” (unlabeled) promethazine, denoted as PMZ in the figure.

Read-outs that look alike come from different tables or passages of the source.

T1 sequence (P05067 672-713 limits assumed): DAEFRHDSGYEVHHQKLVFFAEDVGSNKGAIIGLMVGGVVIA

For orientation: IC50 means the concentration needed to halve the response being measured. In the case of “1,6,7,1′,6′,7′-Hexahydroxy-5,5′-diisopropyl-3,3′-dimethyl-[2,2′]binaphthalenyl-8,8′-dicarbaldehyde [VU0243640]”, the IC50 in data set [1] was 84.2 µM.

On to `CC(CN1c2ccccc2Sc2ccccc21)N(C)C` (centres unmarked) [Promethazine, N,N-dimethyl-1-(10H-phenothiazin-10-yl)propan-2-amine], for which the half-maximal inhibitory concentration (IC50) in data set [1] came out at 53.6 µM. Also, in data set [2] (5XFAD versus WT, 10 min), the “increase in promethazine retention in Aβ-burdened brains (5XFAD vs WT)” value was roughly 4 fold. For the same compound, the “level of promethazine measured in brain (mean)” value in data set [2] (5XFAD, 10 min) was found to be 9.62 µg; in data set [2] (10 min), 2.57 µg. Further, the “original dose retained within the brain” value in data set [2] (5XFAD, 10 min) was 2%; in data set [2] (5XFAD, 240 min), 0.5%; in data set [2] (10 min), 0.5%; in data set [2] (240 min) it was 0.01%.

Regarding `Oc1ccc(/C=C/c2cc(O)cc(O)c2)cc1` [Resveratrol, (E)-5-(4-hydroxystyryl)benzene-1,3-diol], the “FL signal of thioflavin-T at 485 nm was reduced” value in data set [1] (100 μM) is listed as 4.4%; in data set [1] (500 μM) it was 25.9%; in data set [1] (2000 μM), 51%.

For the compound `O=C(O)c1cc(/N=N/c2ccc(S(=O)(=O)Nc3ccccn3)cc2)ccc1O` [VU0243360, 2-Hydroxy-5-[4-(pyridine-2-ylsulfamoyl)-phenylazo]-benzoic acid], in data set [1], the IC50 came out at 68.1 µM.

Turning to `O=C1C(Cl)=C(Cl)C(=O)C(Cl)=C1Cl` [VU0243635, 2,3,5,6-Tetrachloro-[1,4]benzoquinone], the half-inhibitory concentration (IC50) in data set [1] was 90.8 µM.

On to `Nc1ccc(/N=N/c2ccccc2)c(N)n1` [VU0244402, 3-Phenylazo-pyridine-2,6-diamine], for which the IC50 in data set [1] was found to be 74.3 µM.

With `O=C(N/N=C/c1ccc([N+](=O)[O-])o1)c1cc([N+](=O)[O-])cc([N+](=O)[O-])c1O` [VU0656139, 2-Hydroxy-3,5-dinitro-benzoic acid (5-nitro-furan-2-ylmethylene)-hydrazide], the half-maximal inhibitory concentration (IC50) in data set [1] stood at 61.2 µM.

For `CC(CN1c2ccccc2Sc2ccccc21)N(C)C` (centres unmarked) [[^11C]promethazine], the “binding to Abeta plaques by autoradiography” value in data set [3] was “bound to Abeta plaques”.
